Source: patent US10473647B1, “Peptides for use in treatment and diagnosis of type 1 diabetes” (ImmusanT, Inc., priority 2014, dated 2019)
Non-standard residues stand in square brackets, D forms with d. pGlu = O=C1CC[C@@H](C(=O)O)N1

How the values were obtained:
Assay type in all cases: cell-based, human
[1] = tested on: whole blood from subjects with T1D and Celiac disease; experiment: Whole blood cytokine release assay, IFN-γ (MAGPIX), Example 1; details: for Whole blood IFNg release / Whole blood IFNg release, fold-change over medium only: 10 uM; for IFN-g fold-change / IFN-g fold-change (preproinsulin peptides): individual 17mer 20 μg/mL, blood 6 days after commencing oral gluten challenge
[2] = tested on: whole blood from subjects with T1D and Celiac disease; experiment: Whole blood cytokine release assay, IL-2 (MAGPIX), Example 1; details: for Whole blood IL-2 release / Whole blood IL-2 release, fold-change over medium only: 10 uM; for IL-2 fold-change / IL-2 fold-change (preproinsulin peptides): individual 17mer 20 μg/mL, blood 6 days after commencing oral gluten challenge
[3] = tested on: whole blood from subjects with T1D and Celiac disease; experiment: Whole blood cytokine release assay, IP-10 (MAGPIX), Example 1; details: for Whole blood IP-10 release / Whole blood IP-10 release, fold-change over medium only: 10 uM
[4] = subject 1, day 0 since oral challenge
[5] = subject 1, day 6 since oral challenge
[6] = subject 2, day 0 since oral challenge
[7] = subject 2, day 6 since oral challenge
[8] = subject 6, day 0 since oral challenge
[9] = subject 6, day 6 since oral challenge
[10] = subject 7, day 0 since oral challenge
[11] = subject 7, day 6 since oral challenge
[12] = Subject 1, individual 17mer 20 μg/mL, blood 6 days after commencing oral gluten challenge
[13] = Subject 2, individual 17mer 20 μg/mL, blood 6 days after commencing oral gluten challenge
[14] = Subject 6, individual 17mer 20 μg/mL, blood 6 days after commencing oral gluten challenge
[15] = Subject 7, individual 17mer 20 μg/mL, blood 6 days after commencing oral gluten challenge

(pE)PEQPIPEQPQPYPQQ-NH2 ([pGlu]PEQPIPEQPQPYPQQ-NH2; SMILES CC[C@H](C)[C@H](NC(=O)[C@@H]1CCCN1C(=O)[C@H](CCC(N)=O)NC(=O)[C@H](CCC(=O)O)NC(=O)[C@@H]1CCCN1C(=O)[C@@H]1CCC(=O)N1)C(=O)N1CCC[C@H]1C(=O)N[C@@H](CCC(=O)O)C(=O)N[C@@H](CCC(N)=O)C(=O)N1CCC[C@H]1C(=O)N[C@@H](CCC(N)=O)C(=O)N1CCC[C@H]1C(=O)N[C@@H](Cc1ccc(O)cc1)C(=O)N1CCC[C@H]1C(=O)N[C@@H](CCC(N)=O)C(=O)N[C@@H](CCC(N)=O)C(N)=O) [SEQ ID NO: 42, gluten peptide, reference compound]
Whole blood IFNg release [1, 4]: 42 pg/mL
Whole blood IFNg release, fold-change over medium only [1, 4]: 0.76
Whole blood IFNg release [1, 5]: 72 pg/mL
Whole blood IFNg release, fold-change over medium only [1, 5]: 1.09
Whole blood IFNg release [1, 6]: 3.3 pg/mL
Whole blood IFNg release, fold-change over medium only [1, 6]: 0.85
Whole blood IFNg release [1, 7]: 8.6 pg/mL
Whole blood IFNg release, fold-change over medium only [1, 7]: 1.77
Whole blood IFNg release [1, 8]: 96 pg/mL
Whole blood IFNg release, fold-change over medium only [1, 8]: 0.99
Whole blood IFNg release [1, 9]: 278 pg/mL
Whole blood IFNg release, fold-change over medium only [1, 9]: 2.84
Whole blood IFNg release [1, 10]: 170 pg/mL
Whole blood IFNg release, fold-change over medium only [1, 10]: 0.71
Whole blood IFNg release [1, 11]: 102 pg/mL
Whole blood IFNg release, fold-change over medium only [1, 11]: 0.68
Whole blood IL-2 release [2, 4]: 3.2 pg/mL
Whole blood IL-2 release, fold-change over medium only [2, 4]: 1.00
Whole blood IL-2 release [2, 5]: 3.2 pg/mL
Whole blood IL-2 release, fold-change over medium only [2, 5]: 1.00
Whole blood IL-2 release [2, 6]: 3.2 pg/mL
Whole blood IL-2 release, fold-change over medium only [2, 6]: 1.00
Whole blood IL-2 release [2, 7]: 22.4 pg/mL
Whole blood IL-2 release, fold-change over medium only [2, 7]: 7.00
Whole blood IL-2 release [2, 8]: 23.3 pg/mL
Whole blood IL-2 release, fold-change over medium only [2, 8]: 4.71
Whole blood IL-2 release [2, 9]: 134.3 pg/mL
Whole blood IL-2 release, fold-change over medium only [2, 9]: 31.67
Whole blood IL-2 release [2, 10]: 106.1 pg/mL
Whole blood IL-2 release, fold-change over medium only [2, 10]: 1.69
Whole blood IL-2 release [2, 11]: 27.8 pg/mL
Whole blood IL-2 release, fold-change over medium only [2, 11]: 0.66
Whole blood IP-10 release [3, 4]: 235 pg/mL
Whole blood IP-10 release, fold-change over medium only [3, 4]: 0.89
Whole blood IP-10 release [3, 5]: 325 pg/mL
Whole blood IP-10 release, fold-change over medium only [3, 5]: 0.97
Whole blood IP-10 release [3, 6]: 336 pg/mL
Whole blood IP-10 release, fold-change over medium only [3, 6]: 1.26
Whole blood IP-10 release [3, 7]: 1269 pg/mL
Whole blood IP-10 release, fold-change over medium only [3, 7]: 4.06
Whole blood IP-10 release [3, 8]: 3409 pg/mL
Whole blood IP-10 release, fold-change over medium only [3, 8]: 12.30
Whole blood IP-10 release [3, 9]: 10000 pg/mL
Whole blood IP-10 release, fold-change over medium only [3, 9]: 49.76
Whole blood IP-10 release [3, 10]: 713 pg/mL
Whole blood IP-10 release, fold-change over medium only [3, 10]: 0.96
Whole blood IP-10 release [3, 11]: 2549 pg/mL
Whole blood IP-10 release, fold-change over medium only [3, 11]: 2.86

(pE)QPFPQPEQPFPWQP-NH2 ([pGlu]QPFPQPEQPFPWQP-NH2; SMILES NC(=O)CC[C@H](NC(=O)[C@H](Cc1c[nH]c2ccccc12)NC(=O)[C@@H]1CCCN1C(=O)[C@H](Cc1ccccc1)NC(=O)[C@@H]1CCCN1C(=O)[C@H](CCC(N)=O)NC(=O)[C@H](CCC(=O)O)NC(=O)[C@@H]1CCCN1C(=O)[C@H](CCC(N)=O)NC(=O)[C@@H]1CCCN1C(=O)[C@H](Cc1ccccc1)NC(=O)[C@@H]1CCCN1C(=O)[C@H](CCC(N)=O)NC(=O)[C@@H]1CCC(=O)N1)C(=O)N1CCC[C@H]1C(N)=O) [SEQ ID NO: 43, gluten peptide, reference compound]
Whole blood IFNg release [1, 4]: 60 pg/mL
Whole blood IFNg release, fold-change over medium only [1, 4]: 1.09
Whole blood IFNg release [1, 5]: 62 pg/mL
Whole blood IFNg release, fold-change over medium only [1, 5]: 0.95
Whole blood IFNg release [1, 6]: 4.5 pg/mL
Whole blood IFNg release, fold-change over medium only [1, 6]: 1.19
Whole blood IFNg release [1, 7]: 6.4 pg/mL
Whole blood IFNg release, fold-change over medium only [1, 7]: 1.32
Whole blood IFNg release [1, 8]: 94 pg/mL
Whole blood IFNg release, fold-change over medium only [1, 8]: 0.98
Whole blood IFNg release [1, 9]: 258 pg/mL
Whole blood IFNg release, fold-change over medium only [1, 9]: 2.63
Whole blood IFNg release [1, 10]: 158 pg/mL
Whole blood IFNg release, fold-change over medium only [1, 10]: 0.66
Whole blood IFNg release [1, 11]: 150 pg/mL
Whole blood IFNg release, fold-change over medium only [1, 11]: 1.00
Whole blood IL-2 release [2, 4]: 3.2 pg/mL
Whole blood IL-2 release, fold-change over medium only [2, 4]: 1.00
Whole blood IL-2 release [2, 5]: 3.2 pg/mL
Whole blood IL-2 release, fold-change over medium only [2, 5]: 1.00
Whole blood IL-2 release [2, 6]: 3.2 pg/mL
Whole blood IL-2 release, fold-change over medium only [2, 6]: 1.00
Whole blood IL-2 release [2, 7]: 5.2 pg/mL
Whole blood IL-2 release, fold-change over medium only [2, 7]: 1.61
Whole blood IL-2 release [2, 8]: 17.9 pg/mL
Whole blood IL-2 release, fold-change over medium only [2, 8]: 3.62
Whole blood IL-2 release [2, 9]: 115. 9 pg/mL
Whole blood IL-2 release, fold-change over medium only [2, 9]: 27.33
Whole blood IL-2 release [2, 10]: 41.4 pg/mL
Whole blood IL-2 release, fold-change over medium only [2, 10]: 0.66
Whole blood IL-2 release [2, 11]: 55.1 pg/mL
Whole blood IL-2 release, fold-change over medium only [2, 11]: 1.31
Whole blood IP-10 release [3, 4]: 218 pg/mL
Whole blood IP-10 release, fold-change over medium only [3, 4]: 0.82
Whole blood IP-10 release [3, 5]: 501 pg/mL
Whole blood IP-10 release, fold-change over medium only [3, 5]: 1.49
Whole blood IP-10 release [3, 6]: 376 pg/mL
Whole blood IP-10 release, fold-change over medium only [3, 6]: 1.42
Whole blood IP-10 release [3, 7]: 1140 pg/mL
Whole blood IP-10 release, fold-change over medium only [3, 7]: 3.65
Whole blood IP-10 release [3, 8]: 1934 pg/mL
Whole blood IP-10 release, fold-change over medium only [3, 8]: 6.98
Whole blood IP-10 release [3, 9]: 10000 pg/mL
Whole blood IP-10 release, fold-change over medium only [3, 9]: 49.76
Whole blood IP-10 release [3, 10]: 900 pg/mL
Whole blood IP-10 release, fold-change over medium only [3, 10]: 1.21
Whole blood IP-10 release [3, 11]: 10000 pg/mL
Whole blood IP-10 release, fold-change over medium only [3, 11]: 11.21

CGSHLVEALYLVCGERG [SEQ ID NO: 53]
IFN-g fold-change ([1]; Subject 1): 0.99
IFN-g fold-change (preproinsulin peptides) ([1]; Subject 1): 0.99 fold
IFN-g fold-change ([1]; Subject 2): 1.01
IFN-g fold-change (preproinsulin peptides) ([1]; Subject 2): 1.01 fold
IFN-g fold-change ([1]; Subject 6): 0.74
IFN-g fold-change (preproinsulin peptides) ([1]; Subject 6): 0.74 fold
IFN-g fold-change ([1]; Subject 7): 0.69
IFN-g fold-change (preproinsulin peptides) ([1]; Subject 7): 0.69 fold
IL-2 fold-change ([2]; Subject 1): 1.00
IL-2 fold-change (preproinsulin peptides) ([2]; Subject 1): 1.00 fold
IL-2 fold-change ([2]; Subject 2): 1.00
IL-2 fold-change (preproinsulin peptides) ([2]; Subject 2): 1.00 fold
IL-2 fold-change ([2]; Subject 6): 1.08
IL-2 fold-change (preproinsulin peptides) ([2]; Subject 6): 1.08 fold
IL-2 fold-change ([2]; Subject 7): 0.56
IL-2 fold-change (preproinsulin peptides) ([2]; Subject 7): 0.56 fold
IP-10 fold-change [3, 12]: 1.13
IP-10 fold-change (preproinsulin peptides) [3, 12]: 1.13 fold
IP-10 fold-change [3, 13]: 1.50
IP-10 fold-change (preproinsulin peptides) [3, 13]: 1.50 fold
IP-10 fold-change [3, 14]: 3.30
IP-10 fold-change (preproinsulin peptides) [3, 14]: 3.30 fold
IP-10 fold-change [3, 15]: 0.83
IP-10 fold-change (preproinsulin peptides) [3, 15]: 0.83 fold
subjects with elevated whole blood IP-10 release (2-fold greater than medium alone) ([3]; individual 17mer 20 μg/mL, four subjects, blood 6 days after commencing oral gluten challenge): more weakly

EAEVGQVELGGGPGAGS [SEQ ID NO: 56]
IFN-g fold-change ([1]; Subject 1): 1.07
IFN-g fold-change (preproinsulin peptides) ([1]; Subject 1): 1.07 fold
IFN-g fold-change ([1]; Subject 2): 0.82
IFN-g fold-change (preproinsulin peptides) ([1]; Subject 2): 0.82 fold
IFN-g fold-change ([1]; Subject 6): 0.97
IFN-g fold-change (preproinsulin peptides) ([1]; Subject 6): 0.97 fold
IFN-g fold-change ([1]; Subject 7): 1.55
IFN-g fold-change (preproinsulin peptides) ([1]; Subject 7): 1.55 fold
IL-2 fold-change ([2]; Subject 1): 1.00
IL-2 fold-change (preproinsulin peptides) ([2]; Subject 1): 1.00 fold
IL-2 fold-change ([2]; Subject 2): 1.00
IL-2 fold-change (preproinsulin peptides) ([2]; Subject 2): 1.00 fold
IL-2 fold-change ([2]; Subject 6): 1.00
IL-2 fold-change (preproinsulin peptides) ([2]; Subject 6): 1.00 fold
IL-2 fold-change ([2]; Subject 7): 4.83
IL-2 fold-change (preproinsulin peptides) ([2]; Subject 7): 4.83 fold
IP-10 fold-change [3, 12]: 0.96
IP-10 fold-change (preproinsulin peptides) [3, 12]: 0.96 fold
IP-10 fold-change [3, 13]: 1.05
IP-10 fold-change (preproinsulin peptides) [3, 13]: 1.05 fold
IP-10 fold-change [3, 14]: 0.91
IP-10 fold-change (preproinsulin peptides) [3, 14]: 0.91 fold
IP-10 fold-change [3, 15]: 1.43
IP-10 fold-change (preproinsulin peptides) [3, 15]: 1.43 fold
